In publication PMC5218480 (PLoS ONE, 2017):

System: MV-4-11 cells
Assay: Gene expression microarray analysis (Affymetrix PrimeView) and GSEA
Assay type: cell-based, human
Set-up: RFU PODN (11730768_x_at) / Fold change /veh PODN (11730768_x_at) / RFU LINC00158 (11744669_a_at) / Fold change /veh LINC00158 (11744669_a_at) / RFU DUSP10 (11751237_a_at) / Fold change /veh DUSP10 (11751237_a_at) / RFU ID3 (11757404_x_at) / Fold change /veh ID3 (11757404_x_at) / RFU PLEKHG5 (11737974_s_at) / Fold change /veh PLEKHG5 (11737974_s_at) / RFU LRRC4B (11730491_at) / Fold change /veh LRRC4B (11730491_at) / RFU GIMAP4 (11747438_a_at) / Fold change /veh GIMAP4 (11747438_a_at) / RFU KRT8 (11758183_x_at) / Fold change /veh KRT8 (11758183_x_at) / RFU CNN1 (11734310_a_at) / Fold change /veh CNN1 (11734310_a_at) / RFU VPS37D (11726825_at) / Fold change /veh VPS37D (11726825_at) / RFU C10orf10 (11716522_x_at) / Fold change /veh C10orf10 (11716522_x_at) / RFU KIR2DL2 /// KIR2DL4 /// KIR2DL5A /// KIR2DL5B /// KIR2DS1 /// KIR2DS2 /// KIR2DS3 /// KIR2DS4 /// KIR3DL3 /// KIR3DL3 /// KIR3DS1 (11738374_at) / Fold change /veh KIR2DL2 /// KIR2DL4 /// KIR2DL5A /// KIR2DL5B /// KIR2DS1 /// KIR2DS2 /// KIR2DS3 /// KIR2DS4 /// KIR3DL3 /// KIR3DL3 /// KIR3DS1 (11738374_at) / RFU C1QL1 (11718748_at) / Fold change /veh C1QL1 (11718748_at) / RFU TMPRSS4 (11747572_a_at) / Fold change /veh TMPRSS4 (11747572_a_at) / RFU HAMP (11756126_x_at) / Fold change /veh HAMP (11756126_x_at) / RFU RNFT2 (11725882_a_at) / Fold change /veh RNFT2 (11725882_a_at) / RFU NR4A2 (11747474_a_at) / Fold change /veh NR4A2 (11747474_a_at) / RFU ABCC12 (11746883_a_at) / Fold change /veh ABCC12 (11746883_a_at) / RFU TMEM136 (11760407_x_at) / Fold change /veh TMEM136 (11760407_x_at) / RFU CLDN22 /// WWC2 (11732394_at) / Fold change /veh CLDN22 /// WWC2 (11732394_at) / RFU HLA-DPB1 (11760878_x_at) / Fold change /veh HLA-DPB1 (11760878_x_at) / RFU SPINT1 (11716480_a_at) / Fold change /veh SPINT1 (11716480_a_at) / RFU GAP43 (11754022_s_at) / Fold change /veh GAP43 (11754022_s_at) / RFU A4GNT (11735810_at) / Fold change /veh A4GNT (11735810_at) / RFU PRB3 (11715151_x_at) / Fold change /veh PRB3 (11715151_x_at) / RFU TUBB4B (11761932_at) / Fold change /veh TUBB4B (11761932_at) / RFU CAPN14 (11732068_a_at) / Fold change /veh CAPN14 (11732068_a_at) / RFU TMCC2 (11721928_a_at) / Fold change /veh TMCC2 (11721928_a_at) / RFU IRGQ (11745062_a_at) / Fold change /veh IRGQ (11745062_a_at) / RFU FAM174B (11720279_a_at) / Fold change /veh FAM174B (11720279_a_at) / RFU TMPRSS4 (11748680_a_at) / Fold change /veh TMPRSS4 (11748680_a_at) / RFU FAM212B (11763350_a_at) / Fold change /veh FAM212B (11763350_a_at) / RFU PLEKHG5 (11743358_a_at) / Fold change /veh PLEKHG5 (11743358_a_at) / RFU ZSCAN30 (11745921_a_at) / Fold change /veh ZSCAN30 (11745921_a_at) / RFU CMKLR1 (11741424_a_at) / Fold change /veh CMKLR1 (11741424_a_at) / RFU LOC101060620 /// MAPK8IP1 (11723275_at) / Fold change /veh LOC101060620 /// MAPK8IP1 (11723275_at) / RFU SPTSSB (11747773_x_at) / Fold change /veh SPTSSB (11747773_x_at) / RFU PRSS12 (11739890_at) / Fold change /veh PRSS12 (11739890_at) / RFU BIN1 (11741810_x_at) / Fold change /veh BIN1 (11741810_x_at) / RFU WNT11 (11732464_a_at) / Fold change /veh WNT11 (11732464_a_at) / RFU C10orf10 (11716521_a_at) / Fold change /veh C10orf10 (11716521_a_at) / RFU C5orf56 (11738089_at) / Fold change /veh C5orf56 (11738089_at) / RFU CYB561 (11721691_x_at) / Fold change /veh CYB561 (11721691_x_at) / RFU ANKRD19P (11752326_a_at) / Fold change /veh ANKRD19P (11752326_a_at) / RFU OR2T12 /// OR2T33 /// OR2T8 (11738714_s_at) / Fold change /veh OR2T12 /// OR2T33 /// OR2T8 (11738714_s_at) / RFU VCAN (11748164_a_at) / Fold change /veh VCAN (11748164_a_at) / RFU JSRP1 (11732532_at) / Fold change /veh JSRP1 (11732532_at) / RFU KRTAP10-11 (11738290_x_at) / Fold change /veh KRTAP10-11 (11738290_x_at) / RFU MYO3A (11730013_a_at) / Fold change /veh MYO3A (11730013_a_at) / RFU EBF3 (11725865_a_at) / Fold change /veh EBF3 (11725865_a_at) / RFU CAMK2N1 (11719241_x_at) / Fold change /veh CAMK2N1 (11719241_x_at) / RFU C5orf56 (11738088_a_at) / Fold change /veh C5orf56 (11738088_a_at) / RFU OLFML3 (11715873_a_at) / Fold change /veh OLFML3 (11715873_a_at) / RFU LOC100653217 /// NTM (11731650_a_at) / Fold change /veh LOC100653217 /// NTM (11731650_a_at) / RFU MAPK11 (11762145_a_at) / Fold change /veh MAPK11 (11762145_a_at) / RFU FIZ1 (11724087_x_at) / Fold change /veh FIZ1 (11724087_x_at) / RFU OASL (11726364_x_at) / Fold change /veh OASL (11726364_x_at) / RFU SOX15 (11748057_x_at) / Fold change /veh SOX15 (11748057_x_at) / RFU CD79A (11719716_a_at) / Fold change /veh CD79A (11719716_a_at) / RFU HIST1H1D (11736915_at) / Fold change /veh HIST1H1D (11736915_at) / RFU CASKIN2 (11723855_a_at) / Fold change /veh CASKIN2 (11723855_a_at) / RFU LOC730098 (11760151_x_at) / Fold change /veh LOC730098 (11760151_x_at) / RFU OR4N2 (11742367_at) / Fold change /veh OR4N2 (11742367_at) / RFU PRRT2 (11749266_a_at) / Fold change /veh PRRT2 (11749266_a_at) / RFU SNX32 (11753110_a_at) / Fold change /veh SNX32 (11753110_a_at) / RFU CDHR5 (11726645_a_at) / Fold change /veh CDHR5 (11726645_a_at) / RFU RCAN1 (11760418_a_at) / Fold change /veh RCAN1 (11760418_a_at) / RFU FAM167A (11723789_a_at) / Fold change /veh FAM167A (11723789_a_at) / RFU FAM26E (11764081_at) / Fold change /veh FAM26E (11764081_at) / RFU ISYNA1 (11749810_s_at) / Fold change /veh ISYNA1 (11749810_s_at) / RFU ACY1 (11761880_at) / Fold change /veh ACY1 (11761880_at) / RFU 11764098_at / Fold change /veh 11764098_at / RFU SAMD14 (11745864_x_at) / Fold change /veh SAMD14 (11745864_x_at) / RFU NPB (11741838_a_at) / Fold change /veh NPB (11741838_a_at) / RFU TMPRSS6 (11731388_a_at) / Fold change /veh TMPRSS6 (11731388_a_at) / RFU KRTAP10-2 (11738614_at) / Fold change /veh KRTAP10-2 (11738614_at) / RFU ARHGAP8 /// PRR5-ARHGAP8 (11727945_x_at) / Fold change /veh ARHGAP8 /// PRR5-ARHGAP8 (11727945_x_at) / RFU KRTAP5-7 /// NADSYN1 (11734609_at) / Fold change /veh KRTAP5-7 /// NADSYN1 (11734609_at) / RFU RASL12 (11751679_a_at) / Fold change /veh RASL12 (11751679_a_at) / RFU CDKN2B (11736163_a_at) / Fold change /veh CDKN2B (11736163_a_at) / RFU PRF1 (11729649_at) / Fold change /veh PRF1 (11729649_at) / RFU, ZNF638 /// ZNF638-IT1 / Fold change vs veh, ZNF638 /// ZNF638-IT1 / RFU, PANK3 / Fold change vs veh, PANK3 / RFU, SH3YL1 / Fold change vs veh, SH3YL1 / RFU, ZEB2 / Fold change vs veh, ZEB2 / RFU, NRIP1 / Fold change vs veh, NRIP1 / RFU, PTTG1IP / Fold change vs veh, PTTG1IP / RFU, CAPN2 / Fold change vs veh, CAPN2 / RFU, MED14 / Fold change vs veh, MED14 / RFU, SNORA58 / Fold change vs veh, SNORA58 / RFU, C1orf63 / Fold change vs veh, C1orf63 / RFU, LRRFIP1 / Fold change vs veh, LRRFIP1 / RFU, NDUFAF7 / Fold change vs veh, NDUFAF7 / RFU, SLC12A2 / Fold change vs veh, SLC12A2 / RFU, IBTK / Fold change vs veh, IBTK / RFU, ESF1 / Fold change vs veh, ESF1 / Fold change vs veh, TMEM50B / RFU, TAOK1 / Fold change vs veh, TAOK1 / RFU, ACBD3 / Fold change vs veh, ACBD3 / RFU, TMA16 / Fold change vs veh, TMA16 / RFU, RWDD3 / Fold change vs veh, RWDD3 / RFU, BCAT1 / Fold change vs veh, BCAT1 / RFU, EDEM3 / Fold change vs veh, EDEM3 / RFU, TMEM33 / Fold change vs veh, TMEM33 / RFU, WDR75 / Fold change vs veh, WDR75 / RFU, AHCTF1 / Fold change vs veh, AHCTF1 / RFU, TFRC / Fold change vs veh, TFRC / RFU, ZDHHC17 / Fold change vs veh, ZDHHC17 / RFU, NOM1 / Fold change vs veh, NOM1 / RFU, ARL8B / Fold change vs veh, ARL8B / RFU, ZBTB11 / Fold change vs veh, ZBTB11 / RFU, TAMM41 / Fold change vs veh, TAMM41 / RFU, KIAA1704 /// LOC100996395 / Fold change vs veh, KIAA1704 /// LOC100996395 / RFU, ING1 / Fold change vs veh, ING1 / RFU, TRMT61B / Fold change vs veh, TRMT61B / RFU, FUBP3 / Fold change vs veh, FUBP3 / RFU, TP53 / Fold change vs veh, TP53 / RFU, TNKS2 / Fold change vs veh, TNKS2 / RFU, ZFP14 / Fold change vs veh, ZFP14 / RFU, ACTR2 / Fold change vs veh, ACTR2 / RFU, PPP3R1 / Fold change vs veh, PPP3R1 / RFU, PIK3R1 / Fold change vs veh, PIK3R1 / RFU, HNRNPA1 / Fold change vs veh, HNRNPA1 / RFU, RNF170 / Fold change vs veh, RNF170 / RFU, ZNF28 / Fold change vs veh, ZNF28 / RFU, RNGTT / Fold change vs veh, RNGTT / RFU, OGT / Fold change vs veh, OGT / RFU, BRD1 / Fold change vs veh, BRD1 / RFU, MARS / Fold change vs veh, MARS / RFU, ZNF655 / Fold change vs veh, ZNF655 / RFU, FAHD1 / Fold change vs veh, FAHD1 / RFU, BDP1 / Fold change vs veh, BDP1 / RFU, LRRCC1 / Fold change vs veh, LRRCC1 / RFU, ARID1A / Fold change vs veh, ARID1A / RFU, ZNF146 / Fold change vs veh, ZNF146 / RFU, ZNF330 / Fold change vs veh, ZNF330 / RFU, GPN3 / Fold change vs veh, GPN3 / RFU, C9orf123 / Fold change vs veh, C9orf123 / RFU, N4BP2L2 / Fold change vs veh, N4BP2L2 / RFU, ARFIP1 / Fold change vs veh, ARFIP1 / RFU, FAM179B / Fold change vs veh, FAM179B / RFU, BCL10 / Fold change vs veh, BCL10 / RFU, UHRF1BP1L / Fold change vs veh, UHRF1BP1L / RFU, BET1 / Fold change vs veh, BET1 / RFU, CNOT2 / Fold change vs veh, CNOT2 / RFU, ZNF268 / Fold change vs veh, ZNF268 / Fold change vs veh, ZNF507 / RFU, DGCR2 / Fold change vs veh, DGCR2 / RFU, WDSUB1 / Fold change vs veh, WDSUB1 / Fold change vs veh, HSP90B1 /// MIR3652 / RFU, ADSS / Fold change vs veh, ADSS / RFU, GK / Fold change vs veh, GK / RFU, ZNF148 / Fold change vs veh, ZNF148 / RFU, TAF9 / Fold change vs veh, TAF9 / RFU, SLC1A5 / Fold change vs veh, SLC1A5 / RFU, SLMO2 / Fold change vs veh, SLMO2 / RFU, ABCC4 / Fold change vs veh, ABCC4 / RFU, LOC101060439 /// RAP1B / Fold change vs veh, LOC101060439 /// RAP1B / RFU, RFX7 / Fold change vs veh, RFX7 / RFU, GTPBP10 / Fold change vs veh, GTPBP10 / RFU, CNEP1R1 / Fold change vs veh, CNEP1R1 / RFU, BIVM-ERCC5 /// ERCC5 / Fold change vs veh, BIVM-ERCC5 /// ERCC5 / RFU, ILF3 / Fold change vs veh, ILF3 / RFU 11762660_at / Fold change /veh 11762660_at / RFU VCAN (11757783_s_at) / Fold change /veh VCAN (11757783_s_at) / RFU DDX43 (11728927_at) / Fold change /veh DDX43 (11728927_at) / RFU KRT8 (11758188_x_at) / Fold change /veh KRT8 (11758188_x_at) / RFU NKD1 (11759106_at) / Fold change /veh NKD1 (11759106_at) / RFU SRD5A1 (11742802_a_at) / Fold change /veh SRD5A1 (11742802_a_at) / RFU TPSAB1 /// TPSB2 (11721975_s_at) / Fold change /veh TPSAB1 /// TPSB2 (11721975_s_at) / RFU GSTM3 (11746129_a_at) / Fold change /veh GSTM3 (11746129_a_at) / RFU IL23R (11737362_x_at) / Fold change /veh IL23R (11737362_x_at) / RFU TMEM51 (11727254_a_at) / Fold change /veh TMEM51 (11727254_a_at) / RFU PIWIL2 (11732686_x_at) / Fold change /veh PIWIL2 (11732686_x_at) / RFU ORM1 (11744905_x_at) / Fold change /veh ORM1 (11744905_x_at) / RFU CCDC152 (11743942_at) / Fold change /veh CCDC152 (11743942_at) / RFU ECM1 (11717891_a_at) / Fold change /veh ECM1 (11717891_a_at) / RFU IL23R (11748794_a_at) / Fold change /veh IL23R (11748794_a_at) / RFU TNFAIP8L3 (11732012_x_at) / Fold change /veh TNFAIP8L3 (11732012_x_at) / RFU MBOAT4 (11741988_at) / Fold change /veh MBOAT4 (11741988_at) / RFU 11764193_at / Fold change /veh 11764193_at / RFU TMEM53 (11763286_at) / Fold change /veh TMEM53 (11763286_at) / RFU MAGEB2 (11727129_at) / Fold change /veh MAGEB2 (11727129_at) / RFU TMEM200A (11744735_a_at) / Fold change /veh TMEM200A (11744735_a_at) / RFU CCDC152 (11751479_a_at) / Fold change /veh CCDC152 (11751479_a_at) / RFU FAM211A (11726209_a_at) / Fold change /veh FAM211A (11726209_a_at) / RFU RGS16 (11746705_a_at) / Fold change /veh RGS16 (11746705_a_at) / RFU VCAN (11755009_s_at) / Fold change /veh VCAN (11755009_s_at) / RFU RHOB (11743442_s_at) / Fold change /veh RHOB (11743442_s_at) / RFU RGS16 (11720943_a_at) / Fold change /veh RGS16 (11720943_a_at) / RFU RGS16 (11720944_at) / Fold change /veh RGS16 (11720944_at) / RFU, VPS4B / Fold change vs veh, VPS4B / RFU, CREB1 / Fold change vs veh, CREB1 / RFU, DNAJC13 / Fold change vs veh, DNAJC13 / RFU, GNAQ / Fold change vs veh, GNAQ / RFU, CDK5R1 / Fold change vs veh, CDK5R1 / RFU, ZRANB3 / Fold change vs veh, ZRANB3 / RFU, CUL4A / Fold change vs veh, CUL4A / RFU, CCNY / Fold change vs veh, CCNY / RFU, UFL1 / Fold change vs veh, UFL1 / RFU, COG3 / Fold change vs veh, COG3 / RFU, DIAPH2 / Fold change vs veh, DIAPH2 / RFU, SKA2 / Fold change vs veh, SKA2 / RFU, AFF3 / Fold change vs veh, AFF3 / RFU, LMF1 / Fold change vs veh, LMF1 / RFU, IPO11 / Fold change vs veh, IPO11 / RFU, DFFB / Fold change vs veh, DFFB / RFU, FOXP1 / Fold change vs veh, FOXP1 / RFU, CARD8 / Fold change vs veh, CARD8 / RFU, STRN3 / Fold change vs veh, STRN3 / RFU, ADK / Fold change vs veh, ADK / RFU, RASSF2 / Fold change vs veh, RASSF2 / RFU, WIPF1 / Fold change vs veh, WIPF1 / RFU, LARP1B / Fold change vs veh, LARP1B / RFU, RASA1 / Fold change vs veh, RASA1 / RFU, RB1 / Fold change vs veh, RB1 / RFU, PPFIA1 / Fold change vs veh, PPFIA1 / RFU, MAT2A / Fold change vs veh, MAT2A / RFU, CCT5 / Fold change vs veh, CCT5 / RFU, WDR92 / Fold change vs veh, WDR92 / RFU, CUX1 / Fold change vs veh, CUX1 / RFU, TTC7A / Fold change vs veh, TTC7A / RFU, TMEM135 / Fold change vs veh, TMEM135 / RFU, DEPTOR / Fold change vs veh, DEPTOR / RFU, CPM / Fold change vs veh, CPM / RFU, DNAJB6 / Fold change vs veh, DNAJB6 / RFU, CACNA2D3 / Fold change vs veh, CACNA2D3 / RFU, DTX4 / Fold change vs veh, DTX4 / RFU, TFCP2 / Fold change vs veh, TFCP2 / RFU, GMCL1 /// GMCL1P1 / Fold change vs veh, GMCL1 /// GMCL1P1 / RFU, AEBP2 / Fold change vs veh, AEBP2 / RFU, SNHG1 /// SNORD22 /// SNORD25 /// SNORD26 /// SNORD27 /// SNORD28 /// SNORD29 /// SNORD31 / Fold change vs veh, SNHG1 /// SNORD22 /// SNORD25 /// SNORD26 /// SNORD27 /// SNORD28 /// SNORD29 /// SNORD31 / Fold change (Aza/veh), C12orf56 (ProbeSet 11735607_a_at) / Fold change (ACY-1035/veh), C12orf56 (ProbeSet 11735607_a_at) / Fold change (Aza/veh), FGFR1OP (ProbeSet 11751329_s_at) / Fold change (ACY-1035/veh), FGFR1OP (ProbeSet 11751329_s_at) / Fold change (Aza/veh), VPS36 (ProbeSet 11739960_a_at) / Fold change (ACY-1035/veh), VPS36 (ProbeSet 11739960_a_at) / RFU SYPL1 (11715823_x_at) / Fold change /veh SYPL1 (11715823_x_at) / RFU IGFBP7 (11715501_s_at) / Fold change /veh IGFBP7 (11715501_s_at) / RFU REEP3 (11722064_at) / Fold change /veh REEP3 (11722064_at) / RFU IGLL1 (11728026_x_at) / Fold change /veh IGLL1 (11728026_x_at): dose or concentration left out as unconfirmed
Details: ProbeSet 11716891_at; LIST B

Nc1ncn([C@@H]2O[C@H](CO)[C@@H](O)[C@H]2O)c(=O)n1 [azacitidine]
RFU, C9orf123: 42.83 RFU
